ChEMBL document CHEMBL1201862, “PubChem BioAssay data set” (2004)
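Cells were grown in 96-well plates and exposed to each compound for 48 hours at five concentrations; endpoints were interpolated linearly between bracketing concentrations, or set to the highest concentration if not reached. Abbreviation: GI50, concentration required for 50% inhibition of growth.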 Activity calls are given as the source filed them. No stated cut-off is given here; in the data, active = GI50 up to about 1.1 µM and inactive = higher.

Tests used:
Assay in all cases: inhibition of tumour cell growth, NCI panel, 48 h
Malme-3M = test system: Malme-3M
COLO 205 = test system: COLO 205
A498 = test system: A498
K562 = test system: K562
Hs-578T = test system: Hs-578T
HL-60 = test system: HL-60
SF-539 = test system: SF-539
SNB-19 = test system: SNB-19
OVCAR-4 = test system: OVCAR-4
HCT-15 = test system: HCT-15
A549 = test system: A549
SK-OV-3 = test system: SK-OV-3
T47D = test system: T47D
CAKI-1 = test system: CAKI-1
UACC-257 = test system: UACC-257
ACHN = test system: ACHN
RPMI-8226 = test system: RPMI-8226
HT-29 = test system: HT-29
HCC 2998 = test system: HCC 2998
NCI/ADR-RES = test system: NCI/ADR-RES

| SMILES | GI50 (Malme-3M) | GI50 (COLO 205) | GI50 (A498) | GI50 (K562) | GI50 (Hs-578T) | GI50 (HL-60) | GI50 (SF-539) | GI50 (SNB-19) | GI50 (OVCAR-4) | GI50 (HCT-15) [µM] | GI50 (A549) | GI50 (SK-OV-3) | GI50 (T47D) | GI50 (CAKI-1) | GI50 (UACC-257) | GI50 (ACHN) | GI50 (RPMI-8226) | GI50 (HT-29) | GI50 (HCC 2998) | GI50 (NCI/ADR-RES) |
| --- | --- | --- | --- | --- | --- | --- | --- | --- | --- | --- | --- | --- | --- | --- | --- | --- | --- | --- | --- | --- |
| CCN(CC)CCC(=O)N1C/C(=C/c2ccccc2)C(=O)/C(=C\c2ccccc2)C1 | 2.58 µM (inactive) | 2.31 µM (inactive) | 3.96 µM (inactive) | 0.141 µM (active) | < 0.01 µM (active) | 0.383 µM (active) | 3.83 µM (inactive) | 2.2 µM (inactive) | 2.17 µM (inactive) | 1.24 | 4.76 µM (inactive) | 8.57 µM (inactive) | 1.19 µM (inactive) | 2.3 µM (inactive) | 2.1 µM (inactive) | 2.78 µM (inactive) | 0.114 µM (active) | 0.811 µM (active) | 0.706 µM (active) |  |
| Clc1ccc(Cc2nc3cc(Cl)ccc3o2)cc1 | 36.1 µM (inactive) | 29.8 µM (inactive) |  | 46.1 µM (inactive) | 40.8 µM (inactive) | 30.4 µM (inactive) | 30.1 µM (inactive) | 39.6 µM (inactive) | 24.4 µM (inactive) | 29.5 | 41.5 µM (inactive) | 23 µM (inactive) | 35.8 µM (inactive) | 30.6 µM (inactive) | 33 µM (inactive) | 35.6 µM (inactive) | 30.9 µM (inactive) | 26.8 µM (inactive) | 21.6 µM (inactive) | 31.9 µM (inactive) |
| O=S(=O)(/N=C(\NO)Nc1ccc(Cl)cc1)c1cccc2nsnc12 | 21.2 µM (inactive) | 32.4 µM (inactive) |  | 19.7 µM (inactive) | 29.2 µM (inactive) | 13.4 µM (inactive) | 59.3 µM (inactive) | 94.4 µM (inactive) | 13.7 µM (inactive) | 18.3 | 45.5 µM (inactive) | 76.2 µM (inactive) | 48.1 µM (inactive) | 12.9 µM (inactive) | 31 µM (inactive) | 34.4 µM (inactive) |  | 39.2 µM (inactive) |  | 46 µM (inactive) |
| CCOC(=O)N/N=C(\CC)OCC | > 100 µM (inactive) | > 100 µM (inactive) |  | > 100 µM (inactive) | > 100 µM (inactive) | > 100 µM (inactive) | > 100 µM (inactive) | > 100 µM (inactive) |  | > 100 | > 100 µM (inactive) | > 100 µM (inactive) | > 100 µM (inactive) | > 100 µM (inactive) | > 100 µM (inactive) | > 100 µM (inactive) |  |  | > 100 µM (inactive) | > 100 µM (inactive) |
| O=C1CS(=O)(=O)C(c2cccc(Oc3ccccc3)c2)N1c1cccc(Cl)c1 (configuration not stated) | 20 µM (inactive) | 18.8 µM (inactive) |  | 13.1 µM (inactive) | 27.5 µM (inactive) | 30 µM (inactive) | 18 µM (inactive) | 43.4 µM (inactive) | 26.5 µM (inactive) | 22.1 | 37.3 µM (inactive) | 40.6 µM (inactive) | 16.9 µM (inactive) | 25.7 µM (inactive) | 17.1 µM (inactive) | 24.3 µM (inactive) |  | 28.6 µM (inactive) | 0.16 µM (active) | 29.8 µM (inactive) |
| O=C1c2cc([N+](=O)[O-])cnc2S(=O)(=O)N1c1ccc(Br)cc1 | > 100 µM (inactive) | > 100 µM (inactive) |  |  | > 100 µM (inactive) | > 100 µM (inactive) | > 100 µM (inactive) | > 100 µM (inactive) | > 100 µM (inactive) | > 100 | > 100 µM (inactive) | > 100 µM (inactive) | > 100 µM (inactive) | > 100 µM (inactive) | > 100 µM (inactive) | > 100 µM (inactive) | > 100 µM (inactive) | > 100 µM (inactive) | > 100 µM (inactive) | > 100 µM (inactive) |
| CCOP(=O)(OCC)/C(=C\N1C(=O)CC(=O)NC1=S)C(=O)OC |  | > 100 µM (inactive) | > 100 µM (inactive) |  |  | > 100 µM (inactive) | > 100 µM (inactive) | > 100 µM (inactive) | > 100 µM (inactive) | > 100 | > 100 µM (inactive) | > 100 µM (inactive) | > 100 µM (inactive) | > 100 µM (inactive) | > 100 µM (inactive) | > 100 µM (inactive) |  | > 100 µM (inactive) | > 100 µM (inactive) | > 100 µM (inactive) |
| c1ccc2[nH]c(C3CCCCO3)nc2c1 (configuration not stated) | > 100 µM (inactive) | > 100 µM (inactive) |  | > 100 µM (inactive) | > 100 µM (inactive) | > 100 µM (inactive) | > 100 µM (inactive) | > 100 µM (inactive) | > 100 µM (inactive) | > 100 | > 100 µM (inactive) | > 100 µM (inactive) | > 100 µM (inactive) | > 100 µM (inactive) | > 100 µM (inactive) | > 100 µM (inactive) | > 100 µM (inactive) | > 100 µM (inactive) | > 100 µM (inactive) | > 100 µM (inactive) |
